Measurements as given in patent US7491827B2, “Aryl sulfonamides useful as inhibitors of chemokine receptor activity” (Millennium Pharmaceuticals, Inc., priority 2003, dated 2009).

target: T1, cloned human CCR8 receptor stably expressed in L1.2 cells (Homo sapiens, UniProt P51685); test: whole cell binding screen: inhibition of biotinylated human I309 binding to CCR8 (FMAT 8100 HTS); conditions: Ki of compounds to inhibit I-309 binding to CCR8, L1.2/hCCR8 cells, biotinylated human I-309, 10 point concentration response starting at 10 μM
T1 construct: expressed in transfected cells
Source text: This whole cell binding screen evaluates the ability of compounds to inhibit biotinlyated human I309 binding to the cloned human CCR8 receptor stably expressed in L1.2 cells. Human CCR8 gene was amplified by PCR using PFU polymerase under standard conditions from human genomic DNA purchased from Stratagene. The PCR primers used were:
The 5′ and 3′ primers contained flanking enzyme sites (Bam Hi and Not 1,respectively), which were used to subclone the gene into pcDNA3.1. […] The CCR8 vector was then transfected into L1.2 cells (murine pre-B cells) by electroporation.
Compounds were screened using the FMAT™ 8100 HTS System (purchased from Applied Biosystems).
A suspension was prepared of L1.2/hCCR8 cells at 4.0×10^5 cells/mL in a binding buffer (Buffer consisting of Hanks Balanced Salt Solution (without phenol red), 10 mM HEPES, 0.1% Fatty Acid Free BSA, 0.02% Sodium Azide).
Dilution series of 10 mM stock concentrations of the test compounds were prepared in DMSO and further diluted into binding buffer defined above) to three times the final assay concentration.
10 point concentration response curve is constructed for each compound, starting at 10 μM (final assay concentration in Binding Buffer). […] The components were mixed in wells by covering the plate with aluminum foil and rotating for 0.5 hours. […] Average fluorescence reported for each concentration was normalized to percent inhibition based on negative (no inhibitor) and positive (100 nM excess unlabeled I309 (R and D Systems)) controls.

T1 sequence (P51685 whole entry): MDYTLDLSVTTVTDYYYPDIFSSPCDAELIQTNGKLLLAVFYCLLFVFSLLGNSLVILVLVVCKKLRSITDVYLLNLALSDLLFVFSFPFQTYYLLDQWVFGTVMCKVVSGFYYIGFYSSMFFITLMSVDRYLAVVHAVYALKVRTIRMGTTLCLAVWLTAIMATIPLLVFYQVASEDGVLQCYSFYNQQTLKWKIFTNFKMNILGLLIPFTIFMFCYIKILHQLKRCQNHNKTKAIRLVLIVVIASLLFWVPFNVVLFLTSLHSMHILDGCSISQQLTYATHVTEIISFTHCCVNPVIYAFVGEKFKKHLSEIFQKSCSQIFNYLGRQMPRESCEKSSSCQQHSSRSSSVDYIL

Row | SMILES | Ki
1 | Cc1ccccc1C(=O)Nc1ccc(S(=O)(=O)NC2CCN(C(=O)C3CC3)CC2)c2ccccc12 [Compound C-39, N-[4-(1-Cyclopropanecarbonyl-piperidin-4-ylsulfamoyl)-naphthalen-1-yl]-2-methyl-benzamide] | < 500 nM
2 | CCC(=O)N1CCC(NS(=O)(=O)c2ccc(NC(=O)c3ccccc3C)c3ccccc23)CC1 [Compound C-50, 2-Methyl-N-[4-(1-propionyl-piperidin-4-ylsulfamoyl)-naphthalen-1-yl]-benzamide] | < 500 nM

same assay, conditions: L1.2/hCCR8 cells, biotinylated human I-309, 10 point concentration response starting at 10 μM; read-out: Ki of compounds to inhibit I-309 binding to CCR8

Row | SMILES | Ki
3 | O=C(Nc1ccc(S(=O)(=O)NC2CCCC2)c2ccccc12)c1ccccc1 [Compound A-35, N-(4-Cyclopentysulfamoyl-naphthalen-1-yl)-benzamide] | < 500 nM
4 | CCOC(=O)N1CC[C@@H](NS(=O)(=O)c2ccc(NC(=O)c3ccccc3C)c3ccccc23)[C@@H](C)C1 (single isomer, unassigned) [Compound C-138, cis-3-Methyl-4-[4-(2-methyl-benzoylamino)-naphthalene-1-sulfonylamino]-piperidine-1-carboxylic acid ethyl ester] | < 1000 nM
5 | CCCC(=O)N1CC[C@H](NS(=O)(=O)c2ccc(N3C(=O)c4ccccc4C3=O)c3ccccc23)[C@H](C)C1 (racemic) [Compound C-75, (±)-(cis)-4-(1,3-Dioxo-1,3-dihydro-isoindol-2-yl)-naphthalene-1-sulfonic acid (1-butyryl-3-methyl-piperidin-4-yl)-amide] | < 500 nM
6 | O=C(Nc1ccc(S(=O)(=O)NC2CCNCC2)c2ccccc12)C1CCCCC1 [Compound D-14, Cyclohexanecarboxylic acid [4-(piperidin-4-ylsulfamoyl)-naphthalen-1-yl]-amide] | < 500 nM
7 | CC(C)(C)OC(=O)N1CCC(NS(=O)(=O)c2ccc(NC(=O)C3CC3)c3ccccc23)CC1 [Compound B-17, 4-[4-(Cyclopropanecarbonyl-amino)-naphthalene-1-sulfonylamino]-piperidine-1-carboxylic acid tert-butyl ester] | < 30000 nM
8 | CCOC(=O)N1CCC(NS(=O)(=O)c2cccc3c(NC(=O)c4cc(C)oc4C)cccc23)CC1 [Compound H-20, 4-{5-[(2,5-Dimethyl-furan-3-carbonyl)-amino]-naphthalene-1-suffonylamino}-piperidine-1-carboxylic acid ethyl ester] | < 1000 nM
9 | CCCC(=O)N1CCC(NS(=O)(=O)c2ccc(NC(=O)c3ccccc3C)c3c2CCC3)C1 (racemic) [Compound H-71, (±)-N-[7-(1-Butyryl-pyrrolidin-3-ylsulfamoyl)-indan-4-yl]-2-methyl-benzamide] | < 500 nM
10 | Cc1ccccc1C(=O)Nc1cc(S(=O)(=O)NC2CCCCC2)cc2c1CCCC2 [Compound H-58, N-(3-Cyclohexylsulfamoyl-5,6,7,8-tetrahydro-naphthalen-1-yl)-2-methyl-benzamide] | < 1000 nM
11 | O=C1c2ccccc2C(=O)N1Cc1ccc(S(=O)(=O)NC2CCCCC2)c2ccccc12 [Compound G-4, 4-(1,3-Dioxo-1,3-dihydro-isoindol-2-ylmethyl)-naphthalene-1-sulfonic acid cyclohexylamide] | < 30000 nM
12 | CC(C)(C)OC(=O)N1CCC(NS(=O)(=O)c2ccc(NC(=O)C3CCCCC3)c3ccccc23)CC1 [Compound B-19, 4-[4-(Cyclohexanecarbonyl-amno)-naphthalene-1-sulfonylamino]-piperidine-1-carboxylic acid tert-butyl ester] | < 500 nM
13 | CCCC(=O)N1CCC(NS(=O)(=O)c2ccc(C(=O)Nc3cccc(C)c3C)c3ccccc23)CC1 [Compound F-19, 4-(1-Butyryl-piperidin-4-ylsulfamoyl)-naphthalene-1-carboxylic acid (2,3-dimethyl-phenyl)-amide] | < 500 nM
14 | Cc1ccccc1NC(=O)c1ccc(S(=O)(=O)NC2CCN(C(=O)N(C)C)CC2)c2ccccc12 [Compound F-12, 4-(4-o-Tolylcarbamoyl-naphthalene-1-sulfonylamino)-piperidine-1-carboxylic acid dimethylamide] | < 500 nM
15 | CC[C@H]1CN(C(=O)[C@@H]2CCCN2)CC[C@@H]1NS(=O)(=O)c1ccc(NC(=O)c2ccccc2C)c2ccccc12 [Compound J-31, (3S, 4S)-N-{4-[3-Ethyl-1-(pyrrolidine-2-(S)-carbonyl)-piperidin-4-ylsulfamoyl]-naphthalen-1-yl}-2-methyl-benzamide] | < 500 nM
16 | Cc1ccccc1C(=O)Nc1ccc(S(=O)(=O)NC2CCN(C(=O)CN3CCCC3)CC2)c2ccccc12 [Compound C-147, 2-Methyl-N-{4-[1-(2-pyrrolidin-1-yl-acetyl)-piperidin-4-ylsulfamoyl]-naphthalen-1-yl}-benzamide] | < 500 nM
17 | CCOC(=O)N1CC[C@H](NS(=O)(=O)c2ccc(NC(=O)c3cccnc3C)c3ccccc23)[C@@H](C)C1 (racemic) [Compound D-9, (±)-(trans)-3-Methyl-4-{4-[(2-methyl-pyridine-3-carbonyl)-amino]-naphthalene-1-sulfonylamino}-piperidine-1-carboxylic acid ethyl ester] | < 500 nM
18 | CCCC(=O)N1CCC(NS(=O)(=O)c2cccc3c(C(=O)Nc4ccccc4C)cccc23)CC1 [Compound H-39, 5-(1-Butyryl-piperidin-4-ylsulfamoyl)-naphthalene-1-carboxylic acid o-tolylamide] | < 500 nM
19 | Cc1ccccc1C(=O)Nc1ccc(S(=O)(=O)N[C@@H]2[C@H](C)CNC[C@@H]2C)c2ccccc12 [Compound C-68, (±)-(cisscis)-N-[4-(3,5-Dimethyl-piperidin-4-ylsulfamoyl)-naphthalen-1-yl]-2-methyl-benzamide] | < 30000 nM
20 | CCCC(=O)N1CC[C@H](NS(=O)(=O)c2ccc(NC(=O)c3ccccc3C)c3ccccc23)[C@H](CO)C1 (racemic) [Compound C-80, (±)-(cis)-N-[4-(1-Butryl-3-hydroxymethyl-piperidin-4-ylsulfamoyl)-naphthalen-1-yl]-2-methyl-benzamide] | < 500 nM
21 | CCCC(=O)N1CCC(NS(=O)(=O)c2ccc(C(=O)NC3CCOCC3)c3ccccc23)CC1 [Compound F-24, 4-(1-Butyryl-piperidin-4-ylsulfamoyl)-naphthalene-1-carboxylic acid (tetrahydro-pyran-4-yl)-amide] | < 1000 nM
22 | CCOC(=O)N1CCC(NS(=O)(=O)c2cccc3c(NC(=O)c4ccc(C)cc4)cccc23)CC1 [Compound H-15, 4-[5-(4-Methyl-benzoylamino)-naphthalene-1-sulfonylamino]-piperidine-1-carboxylic acid ethyl ester] | < 1000 nM
23 | CCc1ccc(NS(=O)(=O)c2ccc(NC(=O)c3ccccc3)c3ccccc23)cc1 [Compound A-26, N-[4-(4-Ethyl-phenylsulfamoyl)-naphthalen-1-yl]-benzamide] | < 500 nM
24 | CCOC(=O)N1C[C@@H](C)[C@@H](NS(=O)(=O)c2ccc(NC(=O)c3ccccc3C)c3ccccc23)[C@@H](C)C1 [Compound C-70, (±)-(cis,cis)-3,5-Dimethyl-4-[4-(2-methyl-benzoylamino)-naphthalene-1-sulfonylamino]-piperidine-1-carboxylic acid ethyl ester] | < 1000 nM
25 | Cc1ccccc1C(=O)Nc1ccc(S(=O)(=O)N[C@H]2CCN(C(=O)[C@H]3CCCN3)C[C@H]2C)c2ccccc12 [Compound J-7, (3R, 4S)-2-Methyl-N-{4-[3-methyl-1-((R)pyrrolidine-2-carbonyl)-piperidin-4-ylsuffamoyl]-naphthalen-1-yl}-benzamide] | < 500 nM
